From ChEMBL document CHEMBL3861965, “Stereochemical Assignment and Biological Evaluation of BE-14106 Unveils the Importance of One Acetate Unit for the Antifungal Activity of Polyene Macrolactams” (J Nat Prod, 2016)
≈ marks a conversion by molar mass, not a printed value. Calls of active or inactive are those of the source. The calls are words filed in the database; no cut-off is given here.

Columns and labels:
Format in all cases: functional
[1] = Antifungal activity against wild type fission yeast JY1 after 24 hrs by XTT assay; settings: Schizosaccharomyces pombe
[2] = Antifungal activity against fission yeast harboring deltaerg2 mutant after 24 hrs by turbidity assay; settings: Schizosaccharomyces pombe
[3] = Antifungal activity against fission yeast harboring deltaerg31/deltaerg32 mutant after 24 hrs by turbidity assay; settings: Schizosaccharomyces pombe
[4] = Antifungal activity against fission yeast harboring deltaerg5 mutant after 24 hrs by turbidity assay; settings: Schizosaccharomyces pombe
[5] = Antifungal activity against fission yeast harboring deltasts1/erg4 mutant after 24 hrs by turbidity assay; settings: Schizosaccharomyces pombe
[6] = Antifungal activity against wild type fission yeast JY1 after 24 hrs by turbidity assay; settings: Schizosaccharomyces pombe
[7] = test system: Schizosaccharomyces pombe; test: Antifungal activity against wild type fission yeast JY1 assessed as accumulation of cell wall material at 0.25 uM after 2 hrs by cfw-dye based fluorescence microscopic analysis

Compound	MIC [1]	MIC [2]	MIC [3]	MIC [4]	MIC [5]	MIC [6]	Activity [7]
C[C@@H]1[C@H](O)[C@@H](C)/C=C/C=C/C=C/C=C/C=C/C=C/C=C/[C@H](O[C@@H]2O[C@H](C)[C@@H](O)[C@H](N)[C@@H]2O)C[C@@H]2O[C@](O)(C[C@@H](O)C[C@@H](O)[C@H](O)CC[C@@H](O)C[C@@H](O)CC(=O)O[C@H]1C)C[C@H](O)[C@H]2C(=O)O	0.27 µM (≈ 0.25 µg/mL)						
CCC/C=C/C=C/C[C@@H]1C/C=C/C=C(C)/C=C/C=C\[C@@H](O)[C@@H](O)/C=C(C)/C=C/C=C/C(=O)N1		0.13 to 0.28 µM (≈ 0.0585 to 0.126 µg/mL)	0.13 to 0.28 µM (≈ 0.0585 to 0.126 µg/mL)	0.13 to 0.28 µM (≈ 0.0585 to 0.126 µg/mL)	0.13 to 0.28 µM (≈ 0.0585 to 0.126 µg/mL)	0.13 to 0.28 µM (≈ 0.0585 to 0.126 µg/mL)	Active
